Data on two molecules can be found in patent US20200038415A1, “AMINOSTEROL COMPOSITIONS AND METHODS OF USING THE SAME FOR TREATING ERECTILE DYSFUNCTION” (Enterin, Inc., priority 2018, published 2020).

The conditions of data set [1]: in vivo; cited from earlier work.
For data set [2] the following is noted: cited from earlier work.
Data set [3] concerns IPANs (intrinsic primary afferent neuron). The following applies: perfusion through lumen of isolated bowel segment, PD mouse model; cited from earlier work.
The conditions of data set [4]: systemic administration; into the duodenum through the biliary tract (in mice); cited from earlier work.
The test system of data set [5] is mouse models of PD. The following applies: oral; mice with constipation due to overexpression of human αS (West et al, in preparation); cited from earlier work.
Data set [6] in a line: Pharmacokinetics of orally administered squalamine (ENT-01) in Stage 1. In kind it is in vivo, human. The following applies: oral, active zwitterion. Here is the method:
PK data were collected on the 10 patients enrolled in Stage 1 and 10 patients enrolled in Stage 2 to determine the extent of systemic absorption. In Stage 1, PK data were obtained at each visit, pre-medication, at 1, 2, 4, 8 and 24 hours (Table 10). In Stage 2, PK was measured on days 1 and 6 of the randomization period pre-medication, at 1, 2, 4 and 8 hours (Table 11).
The mean Cmax, Tmax and T1/2 and AUC of the squalamine ion following squalamine (ENT-01) oral dosing for Stage 1 patients. The PK analyses are only approximate, as the lower limit of the validated concentration range was 10 ng/ml; most of the measured concentrations fell below that value. The mean Cmax, Tmax and T1/2 and AUC of the squalamine ion following squalamine (ENT-01) oral dosing for Stage 2 patients. The PK analyses are only approximate, as the lower limit of the validated concentration range was 0.5 ng/ml.

For data set [7] the following is noted: prior studies, cited from earlier work.

As for `CC(C)[C@@H](CC[C@@H](C)[C@H]1CC[C@H]2[C@@H]3[C@H](O)C[C@H]4C[C@@H](NCCCNCCCCNCCCN)CC[C@]4(C)[C@H]3CC[C@]12C)OS(=O)(=O)O` [Aminosterol 1436, trodusquemine], the known pharmacological effects result in data set [1] was “reduction in food intake and weight loss”.
In the case of `CC(C)[C@@H](CC[C@@H](C)[C@H]1CC[C@H]2[C@@H]3[C@H](O)C[C@H]4C[C@@H](NCCCNCCCCN)CC[C@]4(C)[C@H]3CC[C@]12C)OS(=O)(=O)O` [squalamine], the “well tolerated intravenous dose” value in data set [2] (dilactate salt, single and repeat intravenous administration, Phase 1 and Phase 2 trials) is listed as “at least 300 mg/m^2”. Besides, the “drug related GI toxicology” value in data set [2] (published clinical trials, systemic administration) is reported as “has not been reported”. For the same molecule, the “effect on IPANs of the ENS” value in data set [3] is reported as “excitation of IPANs”. Further, in data set [4], the clearance and excretion entry was “cleared by the liver and excreted as the intact molecule”. Also, the gastro-intestinal motility result in data set [5] is given as “stimulates gastro-intestinal motility”. Further, the known pharmacological effects entry in data set [1] was “nausea, vomiting and/or reduced blood pressure”. The systemic absorption entry in data set [6] is given as “not significantly absorbed into the systemic circulation”. The “gastrointestinal motility after intravenous administration” value in data set [7] (intravenous) was “not associated with increased gastrointestinal motility”. For the same molecule, in data set [7], the “systemic blood levels, intravenous versus orally administered” value was “one thousand-fold greater”.
